Data on 25 compounds can be found in patent US20240425524A1, “SPIROTRICYCLE RIPK1 INHIBITORS AND METHODS OF USES THEREOF” (Merck Sharp & Dohme LLC, priority 2021, published 2024).

Broadly, the EC50 is the concentration giving half of the maximal effect.

SMILES strings stand for the structures.

The test concerns the target RIPK1 (Homo sapiens (Human), UniProt Q13546). As to the kind of experiment: RIPK1-ADP-Glo Enzymatic Assay. The class given is biochemical. The note with it: recombinant GST-RIPK1 kinase domain (residues 1-327), 25 nM, ten-point titration, 30 minutes pre-incubation. How it is done: The enzymatic activity of RIPK1 was measured using an assay derived from ADP-Glo kit (™Promega), which provides a luminescent-based ADP detection system. Specifically, the ADP generated by RIPK1 kinase was proportionally detected as luminescent signals in a homogenous fashion. In this context, the assessment of the inhibitory effect of small molecules (EC50) was measured by the effectiveness of the compounds to inhibit the ATP to ADP conversion by RIPK1.
In this assay, the potency (EC50) of each compound was determined from a ten-point (1:3 serial dilution: top compound concentration of 100000 nM) titration curve using the following outlined procedure. To each well of a white ProxiPlus 384 well-plate, 30 nL of compound (1% DMSO in final assay volume of 3 μL) was dispensed, followed by the addition of 2 μL of 1x assay buffer (25 mM Hepes 7.3, 20 mM MgCl2, 50 mM NaCl, 1 mM DTT, 0.005% Tween20, and 0.02% BSA) containing 37.5 nM of GST-RIPK1 (recombinant GST-RIPK1 kinase domain (residues 1-327) enzyme produced from baculovirus-transfected Sf21 cells: MW=62 kDa). Plates were placed in an ambient temperature humidified chamber for a 30 minutes pre-incubation with compound. Subsequently, each reaction was initiated by the addition of 1 μL 1× assay buffer containing […] dephosphorylated-MBP substrate. The final reaction in each well of 3 μL consists of 25 nM of GST-RIPK1, 300 µM ATP, and 3 μM dephosphorylated-MBP. Kinase reactions were allowed to proceed for 150 minutes prior to adding ADP-Glo reagents per Promega's outlined kit protocol. Dose-response curves were generated by plotting percent effect (% product conversion: Y-axis) vs. Logio compound concentrations (X-axis). EC50 values were calculated using a non-linear regression, four-parameters sigmoidal dose-response model and are provided for example compounds of the invention (labeled “RIPK1 EC50 (nM)” throughout the above examples).
(In ADP-Glo the light output rises with the ADP produced.)

Chain of RIPK1 (Q13546 1-327): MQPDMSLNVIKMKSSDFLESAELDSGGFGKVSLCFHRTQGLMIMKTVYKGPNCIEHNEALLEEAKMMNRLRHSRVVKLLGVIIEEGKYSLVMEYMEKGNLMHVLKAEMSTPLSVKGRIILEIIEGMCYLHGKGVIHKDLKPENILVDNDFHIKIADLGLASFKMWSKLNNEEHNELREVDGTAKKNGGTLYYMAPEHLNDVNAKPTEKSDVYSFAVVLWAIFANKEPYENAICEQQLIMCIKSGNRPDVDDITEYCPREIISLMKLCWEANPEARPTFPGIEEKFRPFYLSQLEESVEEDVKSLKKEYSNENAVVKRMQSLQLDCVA

`N#Cc1cc(F)cc(C(=O)N2CCC3(CC2)CN2CC[C@@H](c4cc(F)cc(F)c4)N2C3=O)c1` [Example 4.7, (S)-3-(7′-(3,5-difluorophenyl)-1′-oxodihydro-1′H,3′H,5′H-spiro[piperidine-4,2′-pyrazolo[1,2-a]pyrazole]-1-carbonyl)-5-fluorobenzonitrile]: the EC50 was 211 nM. For `O=C1N2[C@H](c3cc(F)cc(F)c3)CCN2CC12CCN(c1ncc(F)cc1C(F)F)CC2` [Example 2.9, (S)-1-(3-(difluoromethyl)-5-fluoropyridin-2-y1)-7′-(3,5-difluorophenyl)dihydro-l′H,3′H,5′H-spiro[piperidine-4,2′-pyrazolo[1,2-a]pyrazol]-1′-one] the value was 792 nM; for `Cc1ccc2c(N3CCC4(CC3)CN3CC[C@@H](c5cc(F)cc(F)c5)N3C4=O)ccnc2c1` [Example 2.8, (S)-7′-(3,5-difluorophenyl)-1-(7-methylquinolin-4-yl)dihydro-l′H,3′H,5′H-spiro[piperidine-4,2′-pyrazolo[1,2-a]pyrazol]-1′-one], 24 nM; for `O=C1N2[C@H](c3cc(F)cc(F)c3)CCN2CC12CCN(c1cnccn1)CC2` [Example 1.41, (S)-7′-(3,5-difluorophenyl)-1-(pyrazin-2-yl)dihydro-1′H,3′H,5′H-spiro[piperidine-4,2′-pyrazolo[1,2-a]pyrazol]-1′-one], 308 nM. For `N#Cc1ccc(C(=O)N2CCC3(CC2)CN2CC[C@@H](c4cc(F)cc(F)c4)N2C3=O)cc1F` [Example 4.15, (S)-4-(7′-(3,5-difluorophenyl)-1′-oxodihydro-1′H,3′H,5′H-spiro[piperidine-4,2′-pyrazolo[1,2-a]pyrazole]-1-carbonyl)-2-fluorobenzonitrile] the value was 858 nM; for `Cc1ccc(N2CCC3(CC2)CN2CC[C@@H](c4cc(F)cc(F)c4)N2C3=O)n2nccc12` [Example 9.1, (S)-7′-(3,5-difluorophenyl)-1-(4-methylpyrazolo[1,5-α]pyridin-7-yl) dihydro-1′H,3′H,5′H-spiro [piperidine-4,2′-pyrazolo[1,2-α]pyrazol]-1′-one], 17 nM. Next, `O=C1N2[C@H](c3cc(F)cc(F)c3)CCN2CC12CCN(c1nccc(C(F)(F)F)n1)CC2` [Example 1.92, (S)-7′-(3,5-difluorophenyl)-1-(4-(trifluoromethyl)pyrimidin-2-yl)dihydro-1′H,3′H,5′H-spiro[piperidine-4,2′-pyrazolo[1,2-a]pyrazol]-1′-one]: 91 nM; `CC(=O)c1cnc(N2CCC3(CC2)CN2CC[C@@H](c4cc(F)cc(F)c4)N2C3=O)cc1Cl` [Example 1.62, (S)-1-(5-acetyl-4-chloropyridin-2-yl)-7′-(3,5-difluorophenyl)dihydro-1′H,3′H,5′H-spiro[piperidine-4,2′-pyrazolo[1,2-a]pyrazol]-1′-one]: 20 nM; `O=C1N2[C@H](c3cc(F)cc(F)c3)CCN2CC12CCN(c1cnc(-c3cccc(Cl)c3)cn1)CC2` [Example 2.17, (S)-1-(5-(3-chlorophenyl)pyrazin-2-yl)-7′-(3,5-difluorophenyl)dihydro-1′H,3′H,5′H-spiro[piperidine-4,2′-pyrazolo[1,2-a]pyrazol]-1′-one]: 96 nM. Regarding `O=C1N2[C@H](c3cc(F)cc(F)c3)CCN2CC12CCN(c1ncc3c(n1)CCCC3)CC2` [Example 1.32, (S)-7′-(3,5-difluorophenyl)-1-(5,6,7,8-tetrahydroquinazolin-2-yl)dihydro-1′H,3′H,5′H-spiro[piperidine-4,2′-pyrazolo[1,2-a]pyrazol]-1′-one], the EC50 stood at 288 nM.

Take `CNC(=O)c1cc(N2CCC3(CC2)CN2CC[C@@H](c4cc(F)cc(F)c4)N2C3=O)ncn1` [Example 1.86, (S)-6-(7′-(3,5-difluorophenyl)-1′-oxodihydro-1′H,3′H,5′H-spiro[piperidine-4,2′-pyrazolo[1,2-a]pyrazol]-1-yl)-N-methylpyrimidine-4-carboxamide]: the EC50 turned out to be 555 nM. Next, `O=C(c1cncc(F)c1)N1CCC2(CC1)CN1CC[C@@H](c3cc(F)cc(F)c3)N1C2=O` [Example 4.17, (S)-7′-(3,5-difluorophenyl)-1-(5-fluoronicotinoyl) dihydro-1′H,3′H,5′H-spiro[piperidine-4,2′-pyrazolo[1,2-a]pyrazol]-l′-one]: 446 nM; `N#Cc1cnc(N2CCC3(CC2)CN2CC[C@@H](c4cc(F)cc(F)c4)N2C3=O)nc1` [Example 1.76, (S)-2-(7′-(3,5-difluorophenyl)-1′-oxodihydro-1′H,3′H,5′H-spiro[piperidine-4,2′-pyrazolo[1,2-a]pyrazol]-1-yl)pyrimidine-5-carbonitrile]: 35 nM. For `O=C1N2[C@H](c3cc(F)cc(F)c3)CCN2CC12CCN(c1ncc(F)cn1)CC2` [Example 1.29, (S)-7′-(3,5-difluorophenyl)-1-(5-fluoropyrimidin-2-yl)dihydro-1′H,3′H,5′H-spiro[piperidine-4,2′-pyrazolo[1,2-a]pyrazol]-1′-one] the value was 84 nM.

In the case of `Cc1cnn(-c2ccnc(N3CCC4(CC3)CN3CC[C@@H](c5cc(F)cc(F)c5)N3C4=O)c2)c1` [Example 2.26, (S)-7′-(3,5-difluorophenyl)-1-(4-(4-methyl-1H-pyrazol-1-yl)pyridin-2-yl)dihydro-1′H,3′H,5′H-spiro[piperidine-4,2′-pyrazolo[1,2-a]pyrazol]-1′-one], the EC50 came out at 98 nM. Next, `O=C(c1ncccn1)N1CCC2(CC1)CN1CC[C@@H](c3cc(F)cc(F)c3)N1C2=O` [Example 4.2, (S)-7′-(3,5-difluorophenyl)-1-(pyrimidine-2-carbonyl)dihydro-1′H,3′H,5′H-spiro[piperidine-4,2′-pyrazolo[1,2-a]pyrazol]-l′-one]: 434 nM; `Cc1ncc(Cl)nc1N1CCC2(CC1)CN1CC[C@@H](c3cc(F)cc(F)c3)N1C2=O` [Example 1.43, (S)-1-(6-chloro-3-methylpyrazin-2-yl)-7′-(3,5-difluorophenyl)dihydro-1′H,3′H,5′H-spiro[piperidine-4,2′-pyrazolo[1,2-a]pyrazol]-1′-one]: 876 nM; `O=C1N2[C@H](c3cc(F)cc(F)c3)CCN2CC12CCN(c1cc(-n3cccn3)ncn1)CC2` [Example 1.17, (S)-1-(6-(1H-pyrazol-1-yl)pyrimidin-4-yl)-7′-(3,5-difluorophenyl)dihydro-1′H,3′H,5′H-spiro[piperidine-4,2′-pyrazolo[1,2-a]pyrazol]-1′-one]: 20 nM. For `O=C1N2[C@H](c3cc(F)cc(F)c3)CCN2CC12CCN(c1cncc(Cl)n1)CC2` [Example 1.40, (S)-1-(6-chloropyrazin-2-yl)-7′-(3,5-difluorophenyl)dihydro-1′H,3′H,5′H-spiro[piperidine-4,2′-pyrazolo[1,2-a]pyrazol]-1′-one] the value was 407 nM. Next, `O=C(c1cccc(F)c1Cl)N1CCC2(CC1)CN1CC[C@@H](c3cc(F)cc(F)c3)N1C2=O` [Example 4.28, (S)-1-(2-chloro-3-fluorobenzoyl)-7′-(3,5-difluorophenyl)dihydro-1′H,3′H,5′H-spiro[piperidine-4,2′-pyrazolo[1,2-a]pyrazol]-l′-one]: 36 nM; `Cc1nc(N2CCC3(CC2)CN2CC[C@@H](c4cc(F)cc(F)c4)N2C3=O)ncc1OC(F)F` [Example 1.26, (S)-1-(5-(difluoromethoxy)-4-methylpyrimidin-2-yl)-7′-(3,5-difluorophenyl)dihydro-1′H,3′H,5′H-spiro [piperidine-4,2′-pyrazolo[1,2-a]pyrazol]-1′-one]: 15 nM. As to `Cc1cc(F)c(C(=O)N2CCC3(CC2)CN2CC[C@@H](c4cc(F)cc(F)c4)N2C3=O)cc1F` [Example 4.26, (S)-1-(2,5-difluoro-4-methylbenzoyl)-7′-(3,5-difluorophenyl) dihydro-1′H,3′H,5′H-spiro[piperidine-4,2′-pyrazolo[1,2-a]pyrazol]-l′-one], the EC50 was found to be 23 nM. For the compound `O=C(c1cc(F)cc(F)c1F)N1CCC2(CC1)CN1CC[C@@H](c3cc(F)cc(F)c3)N1C2=O` [Example 4.12, (S)-7′-(3,5-difluorophenyl)-1-(2,3,5-trifluorobenzoyl) dihydro-1′H,3′H,5′H-spiro[piperidine-4,2′-pyrazolo[1,2-a]pyrazol]-l′-one], the EC50 is 26 nM. Next, `O=C1N2[C@H](c3cc(F)cc(F)c3)CCN2CC12CCN(c1ncnc3ccsc13)CC2` [Example 1.13, (S)-7′-(3,5-difluorophenyl)-1-(thieno[3,2-d]pyrimidin-4-yl)dihydro-1′H,3′H,5′H-spiro[piperidine-4,2′-pyrazolo[1,2-a]pyrazol]-1′-one]: 16 nM; `O=C1N2[C@H](c3cc(F)cc(F)c3)CCN2CC12CCN(c1ncc(OC(F)F)cn1)CC2` [Example 1.25, (S)-1-(5-(difluoromethoxy)pyrimidin-2-yl)-7′-(3,5-difluorophenyl)dihydro-1′H,3′H,5′H-spiro[piperidine-4,2′-pyrazolo[1,2-a]pyrazol]-1′-one]: 38 nM.
